Data taken from patent US20230240989A1, “LIPOSOMAL OZONE NANOSOLUTIONS” (priority 2021, published 2023).
“And” between values parts separate entries of the source, which are not always exact repeats. Identical values can stand only once. Like-named read-outs stand apart in the source and are kept apart here.

Legend:
[1] = system: BALB/c 3T3 (CCL-163) cell line; conditions: mouse, 48 h
[2] = system: L-929 mouse fibroblast cell line; conditions: 48 h
[3] = system: back skin of New Zealand albino rabbits; assay: Skin irritation test TS EN ISO 10993-10 (barrier solution)
Text: Three healthy young New Zealand albino rabbits with a body weight of 2-3 kg were used as experimental animals.
Test material given under the title of TS EN ISO 10993-10:2010 annex A A.2,2 Liquid test materials; Liquids were applied without dilution or by direct precipitation or, if not applicable, at a dose of 1600 ppm, which is the usage dose according to the guideline. […] The sponge impregnated with the nanosolution of the invention was kept in direct contact with the sample application areas. SLS impregnated sponge was applied to the positive control area. The samples were covered with gauze, fixed with a bandage, and topically contacted with the back skin for 4 hours. The primary irritation index was determined by evaluating the application areas (1±0.1) […], and (72±2) hours after the 4th hour application, according to the skin reaction score given in Chart 1. As stated in the standard, the 1st hour was not included in the calculation.

[4] = system: inner cheek pouch of Syrian hamsters; assay: Oral mucosal irritation test
Description: Oral mucosal irritation test was carried out considering the TS EN ISO 10993-10:2010 standard, the experimental animal used in the test is considered according to TS EN ISO 10993-2:2006 standard, the material preparation is made according to TS EN ISO 10993-12:2012 standard guidelines. The test is performed for materials intended to come into contact with oral tissue and where safety data cannot be obtained by other means.
Animals were acclimated to the environment by taking care of them as specified in TS EN ISO 10993-2:2006. Healthy young adult Syrian hamsters of both sexes, unrelated to a single strain, were used for testing. Product sample-impregnated gauze was placed in the inner cheek pouch of each animal under ketamine/Xylazine anesthesia. The exposure time was evaluated according to the rule of reflecting the actual expected use time of the material, and the sample was kept in the inner cheek pouch for 1 hour.
Test material given under the title of ISO 10993-10:2010 annex A A.2,2 Liquid test materials; Liquids were applied without dilution or by direct precipitation or, if not applicable, at a dose of 1600 ppm, which is the usage dose according to the guideline. Saline solution-impregnated absorbent gauze was used as negative control. As a positive control, HCl acid solution adjusted to pH 1.5 was used in our laboratory based on the rule that liquids with pH 2 and below are considered irritating.
The left inner cheek pouch of each animal was evaluated for the experimental sample, and the contralateral (Right) inner cheek was considered as the negative control. No material was placed into the right side inner cheek pouch, it was only washed with physiological saline and dissected at the end of the experiment.
Gauze cloth impregnated with a usage dose of 1600 ppm of the nanosolution of the invention was placed in the left inner cheek pouch of Syrian hamsters under ketamine/Xylazine anesthesia, whose inner cheeks were emptied and washed with saline. After the exposure of the subject to the sample for 1 hour, the sample was removed and the inner cheek was rinsed with saline solution, taking care not to contaminate the other cheek. Experiment (left) and control (right) inner cheek pouches were evaluated macroscopically according to chart 1. The experiment was terminated after 1 hour of contact.
According to the standard directive, the exposure time should reflect the actual expected use time of the material, but should not be less than 5 minutes. The repeated observation rating (Table 1) performed at long-term chronic exposures is summed up and divided by the total repeat application 4. Since it is a device with subacute use, the application was performed 4 times with one hour intervals. Observations of the sample applied left inner cheek were compared with the right inner cheeks (negative control) washed with saline.

[5] = system: back skin of New Zealand albino rabbits; assay: Irritation test TS EN ISO 10993-10 (injection solution); assay type: in vivo, rabbit; conditions: for Primary irritation score (score average): 24th-72nd hour, 1st hour not included
Description: Test material given under the title of TS EN ISO 10993-10:2010 annex A A.2,2 Liquid test materials; Liquids should be tested without dilution or by direct precipitation or, if not applicable, by diluting with physiological saline to ¼ dose, which is the usage dose in accordance with the directive that it should be tested by diluting with a suitable liquid.
Sodium lauryl sulphate (SLS) was used as a positive control and distilled water was used as a negative control.
SLS-impregnated sponge was applied to the positive control area (area no 3). The samples were covered with gauze, fixed with a bandage, and topically contacted with the back skin for 4 hours.
The primary irritation index was determined by evaluating the application areas (1±0.1) s, (24±2) s, (48±2) s, and (72±2) hours after the 4th hour application, according to the skin reaction score given in Chart 1. As stated in the standard, the 1st hour was not included in the calculation.

albino guinea pigs = assay: Sensitization test, Closed Patch-Buehler method; conditions: per animal
[6] = system: female rats of Sprague downey breed; conditions: skin biopsy of laparotomy incision line, group average
Description: A total of 72 skin biopsies of 72 animals from the abdomen were examined in the experimental groups in the applications on the wound lips on the skin line where the incision was made; Physiological Salt Water (FTS), 1% Lidocaine, ozone-free nanosolution, 250 ppm ozone nanosolution, 500 ppm ozone nanosolution, 500 ppm ozone nanosolution+2% Lidocaine (50% blend), 1000 ppm Ozone nanosolution+2% Lidocaine (50% blend) and 2000 ppm ozone nanosolution+2% Lidocaine (50% blend). Lesions were scored and group average scores were obtained.

[7] = left cheek (experiment), single subject

With `C[S+](C)[O-]` [PC, Dimethylsulfoxide] the Vitality % ([1]; 3 % v/v) was 31.25%, the “Optical density (OD) mean value 570 nm ± standard deviation (SD)” value ([1]; 10 % v/v) was 0.1 ± 0.06 and the Vitality % ([1]; 10 % v/v) was 24.37%. The “Optical density (OD) mean value 570 nm ± standard deviation (SD)” value ([1]; 30 % v/v) was 0.078 ± 0.02, the Vitality % ([2]; 10 % v/v) was 53.44% and the Vitality % ([2]; 30 % v/v) was 36.46%.

For `CCCCCCCCCCCCOS(=O)(=O)[O-].[Na+]` [Positive control, Sodium lauryl sulphate], the “Primary Irritation Score Rabbit 1” value ([3]; 24th, 48th, 72nd hours) was 2.167 ± 1.169, the “Primary Irritation Score Rabbit 2” value ([3]; 24th, 48th, 72nd hours) was 1.333 ± 1.2 and the “Primary Irritation Score Rabbit 3” value ([3]; 24th, 48th, 72nd hours) was 1.500 ± 1.049. For the same compound, the “Primary Irritation Index” value ([3]; three rabbits) was 1.666, the “macroscopic examination of inner cheek mucosa” value ([4]; hamster, in vivo) was “Areas of mucosal erosion were noted” and the “Microscopic irritation score Edema” value [4, 7] was 0. For the same compound, the “Microscopic irritation score Epithelium” value [4, 7] was 3, the “Microscopic irritation score Leukocyte infiltration” value [4, 7] was 2 (Mild (26 to 50)) and the “Microscopic irritation score Vascular congestion” value [4, 7] was 1. For the same compound, the “Primary irritation score (score average)” value ([5]; Rabbit 1) was 2.167 ± 1.169, the “Primary irritation score (score average)” value ([5]; Rabbit 2) was 1.333 ± 1.211 and the “Primary irritation score (score average)” value ([5]; Rabbit 3) was 1.500 ± 1.049. The “Primary Irritation Index” value ([5]; mean of three rabbits) was 1.666, the “Magnusson and Kligman Rating” value (albino guinea pigs; 24th hour after stimulation, 2020 Oct. 27) was 2 and the “Magnusson and Kligman Rating” value (albino guinea pigs; 48th hour after stimulation, 2020 Oct. 28) was 2. The “Magnusson and Kligman Rating” value (albino guinea pigs; Induction first week, application date 2020 Sep. 24, 6 h closed patch) was 1, the “Magnusson and Kligman Rating” value (albino guinea pigs; Induction first week, application date 2020 Sep. 26, 6 h closed patch) was 1 and the “Magnusson and Kligman Rating” value (albino guinea pigs; Induction first week, application date 2020 Sep. 28, 6 h closed patch) was 1. For the same compound, the “Magnusson and Kligman Rating” value (albino guinea pigs; Induction, application date 2020 Oct. 2, 6 h closed patch, sulphate) was 2 (3×) and 1 (2×), the “Magnusson and Kligman Rating” value (albino guinea pigs; Induction, application date 2020 Oct. 4, 6 h closed patch) was 2 and the “Magnusson and Kligman Rating” value (albino guinea pigs; Induction, application date 2020 Oct. 7, 6 h closed patch) was 2. The “Magnusson and Kligman Rating” value (albino guinea pigs; Induction, application date 2020 Oct. 9, 6 h closed patch, sulphate) was 2 (4×) and 3, the “Magnusson and Kligman Rating” value (albino guinea pigs; Induction, application date 2020 Oct. 12, 6 h closed patch, sulphate) was 3 (4×) and 2 and the “Magnusson and Kligman Rating” value (albino guinea pigs; Induction, application date 2020 Sep. 31, 6 h closed patch, sulphate) was 1 (4×) and 2. The “Magnusson and Kligman Rating” value (albino guinea pigs; Stimulation application, 2020 Oct. 26, sulphate) was 2 (4×) and 3.

`CCN(CC)CC(=O)Nc1c(C)cccc1C` [1% lidocaine] was tested, and the “Collagen Epidermis/Dermis (%)” value [6] was 25.33 ± 2.46%, the Bleeding score ([6]; scoring out of 3) was 0.83 ± 0.54 and the Connective tissue score ([6]; scoring out of 3) was 2.67 ± 0.33. The Edema score ([6]; scoring out of 3) was 0.67 ± 0.33, the Inflammation score ([6]; scoring out of 3) was 2.50 ± 0.34 and the Vascular formation score ([6]; scoring out of 3) was 1.83 ± 0.17.
